Test results: PMC9814781, “Structure-based design of a dual-warhead covalent inhibitor of FGFR4” (Communications Chemistry, 2022)

Legend:
[1] = biological target: NEK1 (Homo sapiens, UniProt Q96PY6); assay: Kinase selectivity profiling
[2] = biological target: MUSK (Homo sapiens, UniProt O15146); assay: Kinase selectivity profiling
[3] = system: parental Ba/F3 cells; assay: Ba/F3 cell viability assay; format: cell-based; conditions: Mus musculus, BaF3, 72 h, CCK-8
[4] = biological target: KIT[D816V] (Homo sapiens, UniProt P10721, D816V); assay: Kinase selectivity profiling
[5] = biological target: AKT1 (Homo sapiens, UniProt P31749); assay: Kinase selectivity profiling
[6] = biological target: AurA (Homo sapiens, UniProt O14965); assay: Kinase selectivity profiling
[7] = biological target: RON (Homo sapiens, UniProt Q04912); assay: Kinase selectivity profiling
[8] = biological target: FMS (CSF1R) (Homo sapiens, UniProt P07333); assay: Kinase selectivity profiling
[9] = biological target: CK1α(CSNK1A1) (Homo sapiens, UniProt P48729); assay: Kinase selectivity profiling
[10] = biological target: MAP4K2 (Homo sapiens, UniProt Q12851); assay: Kinase selectivity profiling
[11] = biological target: BRSK2 (Homo sapiens, UniProt Q8IWQ3); assay: Kinase selectivity profiling
[12] = biological target: CK1γ3 (Homo sapiens, UniProt Q9Y6M4); assay: Kinase selectivity profiling
[13] = biological target: PKD2 (Homo sapiens, UniProt Q9BZL6); assay: Kinase selectivity profiling
[14] = biological target: AKT3 (Homo sapiens, UniProt Q9Y243); assay: Kinase selectivity profiling
[15] = biological target: Erk2 (Homo sapiens, UniProt P28482); assay: Kinase selectivity profiling
[16] = biological target: HIPK2 (Homo sapiens, UniProt Q9H2X6); assay: Kinase selectivity profiling
[17] = biological target: CHK2 (Homo sapiens, UniProt O96017); assay: Kinase selectivity profiling
[18] = biological target: YES (Homo sapiens, UniProt P07947); assay: Kinase selectivity profiling
[19] = biological target: FGFR3 (Homo sapiens, UniProt P22607); assay: Kinase inhibition assay (ADP-Glo); format: biochemical; design: FGFR3 (residues 450–758); 6xHis + PreScission site (N, cleaved yes); made in house; host or cells: Escherichia coli Rosseta
Procedure: Wild-type FGFRs and mutant FGFRs were prepared as previously described[25]–[27]. In brief, the kinase domains of human FGFR1 (residues 456–765), FGFR2 (residues 453–770), FGFR3 (residues 450–758), and FGFR4 (residues 445–753) were cloned into a modified pET28a expression vector and then transfected into Escherichia coli Rosseta cells. The N-terminal of the recombinant proteins were contained a 6xHis tag followed by a PreScission cleavage site for FGFR1, FGFR2, FGFR3, and FGFR4. Site-directed mutagenesis of FGFR4 was generated according to the ClonExpress II One Step Cloning Kit (Vazyme) using the pET28a-FGFR4 plasmid as the template. These mutants were confirmed by DNA sequencing (Tsingke, Changsha, China). For crystallization experiments, the wild-type FGFR4 plasmid was co-expressed with untagged YOPH to obtain non-phosphorylated proteins. The proteins were first purified by Ni-NTA affinity chromatography. […]
All kinase inhibition assays were performed with optimized kinase assay buffer consisting of 40 mM Tris-HCl pH 7.5, 20 mM MgCl2, 20 mM NaCl, 0.1 mg/mL BSA, 1 mM TCEP, and 4% DMSO. […] Fluorescence was measured on a multimode plate reader (Perkin-Elmer) using a chemiluminescence program after the addition of the detection reagent. IC50 values were determined using a three-parameter log [Inhibitor] versus response model in GraphPad Prism software.

[20] = biological target: HIPK3 (Homo sapiens, UniProt Q9H422); assay: Kinase selectivity profiling
[21] = biological target: CHK1(CHEK1) (Homo sapiens, UniProt O14757); assay: Kinase selectivity profiling
[22] = biological target: HPK1 (Homo sapiens, UniProt Q92918); assay: Kinase selectivity profiling
[23] = biological target: JNK2 (Homo sapiens, UniProt P45984); assay: Kinase selectivity profiling
[24] = biological target: PIK3CA/PIK3R1 (Homo sapiens, UniProt P42336); assay: Kinase selectivity profiling
[25] = biological target: CDK2/CycA2 (Homo sapiens, UniProt P24941); assay: Kinase selectivity profiling
[26] = biological target: Pkca (Homo sapiens, UniProt P17252); assay: Kinase selectivity profiling
[27] = biological target: EPHA8 (Homo sapiens, UniProt P29322); assay: Kinase selectivity profiling
[28] = biological target: DAPK1 (Homo sapiens, UniProt P53355); assay: Kinase selectivity profiling

HPK1, sequence (Q92918 whole entry): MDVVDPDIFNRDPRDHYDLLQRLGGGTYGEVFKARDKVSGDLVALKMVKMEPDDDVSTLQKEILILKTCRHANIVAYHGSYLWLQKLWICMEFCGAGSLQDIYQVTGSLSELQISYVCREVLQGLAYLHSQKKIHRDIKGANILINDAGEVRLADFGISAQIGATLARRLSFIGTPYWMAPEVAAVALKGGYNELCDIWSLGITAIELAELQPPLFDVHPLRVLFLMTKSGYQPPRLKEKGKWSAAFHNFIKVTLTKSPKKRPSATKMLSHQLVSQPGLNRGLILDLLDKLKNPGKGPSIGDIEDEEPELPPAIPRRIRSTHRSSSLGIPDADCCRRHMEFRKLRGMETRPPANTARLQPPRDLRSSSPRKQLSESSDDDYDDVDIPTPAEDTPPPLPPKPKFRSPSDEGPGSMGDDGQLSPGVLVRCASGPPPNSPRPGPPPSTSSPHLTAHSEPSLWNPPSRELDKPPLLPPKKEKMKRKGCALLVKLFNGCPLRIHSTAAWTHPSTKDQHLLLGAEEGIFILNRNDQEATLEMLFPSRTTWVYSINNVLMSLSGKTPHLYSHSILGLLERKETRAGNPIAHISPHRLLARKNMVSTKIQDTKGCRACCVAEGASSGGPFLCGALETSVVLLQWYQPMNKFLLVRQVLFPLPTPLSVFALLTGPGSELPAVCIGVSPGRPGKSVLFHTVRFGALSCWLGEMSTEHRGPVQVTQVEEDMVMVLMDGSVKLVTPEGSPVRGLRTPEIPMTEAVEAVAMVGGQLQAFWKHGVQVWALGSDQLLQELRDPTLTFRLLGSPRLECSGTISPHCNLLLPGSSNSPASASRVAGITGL
MAP4K2, sequence (Q12851 whole entry): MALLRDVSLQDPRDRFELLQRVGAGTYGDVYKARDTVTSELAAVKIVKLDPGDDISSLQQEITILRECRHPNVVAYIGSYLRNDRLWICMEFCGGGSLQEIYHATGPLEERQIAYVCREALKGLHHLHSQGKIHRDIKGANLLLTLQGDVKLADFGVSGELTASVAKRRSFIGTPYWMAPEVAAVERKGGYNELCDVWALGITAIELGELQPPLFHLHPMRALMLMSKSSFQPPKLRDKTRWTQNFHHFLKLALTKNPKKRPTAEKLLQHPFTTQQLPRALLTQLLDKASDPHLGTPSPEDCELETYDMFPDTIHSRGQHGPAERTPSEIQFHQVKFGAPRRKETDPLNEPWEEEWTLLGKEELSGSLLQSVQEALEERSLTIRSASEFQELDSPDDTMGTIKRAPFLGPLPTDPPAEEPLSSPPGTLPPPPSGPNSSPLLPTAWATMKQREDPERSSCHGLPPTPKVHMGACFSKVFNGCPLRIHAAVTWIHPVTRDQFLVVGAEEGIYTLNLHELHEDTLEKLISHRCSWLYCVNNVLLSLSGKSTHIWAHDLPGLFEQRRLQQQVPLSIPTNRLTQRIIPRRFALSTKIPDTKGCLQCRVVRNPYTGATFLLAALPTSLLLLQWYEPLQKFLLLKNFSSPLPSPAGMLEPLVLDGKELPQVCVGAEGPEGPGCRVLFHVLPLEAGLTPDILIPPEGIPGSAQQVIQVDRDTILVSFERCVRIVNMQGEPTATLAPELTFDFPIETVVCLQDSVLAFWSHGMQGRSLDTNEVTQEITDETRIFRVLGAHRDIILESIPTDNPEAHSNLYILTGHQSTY
FMS (CSF1R), sequence (P07333 20-972): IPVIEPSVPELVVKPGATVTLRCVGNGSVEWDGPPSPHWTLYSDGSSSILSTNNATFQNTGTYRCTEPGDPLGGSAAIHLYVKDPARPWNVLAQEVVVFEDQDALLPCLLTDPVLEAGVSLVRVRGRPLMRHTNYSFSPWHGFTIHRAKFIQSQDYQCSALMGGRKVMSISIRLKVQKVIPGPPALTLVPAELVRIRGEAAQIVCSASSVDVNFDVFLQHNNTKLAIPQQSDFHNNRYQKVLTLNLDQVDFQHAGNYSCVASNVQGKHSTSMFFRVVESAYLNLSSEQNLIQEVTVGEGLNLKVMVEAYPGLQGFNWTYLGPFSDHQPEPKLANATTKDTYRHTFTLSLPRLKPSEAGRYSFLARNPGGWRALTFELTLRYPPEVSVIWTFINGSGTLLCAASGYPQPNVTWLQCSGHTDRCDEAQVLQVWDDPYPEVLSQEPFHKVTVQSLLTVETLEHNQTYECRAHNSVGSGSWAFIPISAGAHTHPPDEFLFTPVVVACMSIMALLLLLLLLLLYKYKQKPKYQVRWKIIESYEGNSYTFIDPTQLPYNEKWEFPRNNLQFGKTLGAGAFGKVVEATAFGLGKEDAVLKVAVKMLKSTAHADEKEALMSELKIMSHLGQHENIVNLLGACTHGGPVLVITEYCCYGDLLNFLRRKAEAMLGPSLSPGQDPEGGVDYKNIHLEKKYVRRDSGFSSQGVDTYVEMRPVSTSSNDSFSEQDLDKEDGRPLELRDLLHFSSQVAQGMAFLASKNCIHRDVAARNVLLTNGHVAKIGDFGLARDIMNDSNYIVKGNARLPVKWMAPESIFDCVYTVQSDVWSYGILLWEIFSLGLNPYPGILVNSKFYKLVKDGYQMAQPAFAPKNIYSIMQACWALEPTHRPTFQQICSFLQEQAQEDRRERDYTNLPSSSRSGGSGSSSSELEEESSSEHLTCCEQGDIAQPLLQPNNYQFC
AurA, sequence (O14965 whole entry): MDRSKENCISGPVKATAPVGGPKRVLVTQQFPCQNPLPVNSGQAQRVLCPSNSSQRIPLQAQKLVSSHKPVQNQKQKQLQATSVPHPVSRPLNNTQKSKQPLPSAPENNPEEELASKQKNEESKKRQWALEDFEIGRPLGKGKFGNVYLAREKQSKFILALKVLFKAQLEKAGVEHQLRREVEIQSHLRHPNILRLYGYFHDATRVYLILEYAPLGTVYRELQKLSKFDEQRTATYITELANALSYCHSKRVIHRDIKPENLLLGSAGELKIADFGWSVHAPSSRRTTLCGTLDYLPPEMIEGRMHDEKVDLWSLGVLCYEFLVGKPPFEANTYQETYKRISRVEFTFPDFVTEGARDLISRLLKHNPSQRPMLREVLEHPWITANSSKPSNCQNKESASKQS
CHK1(CHEK1), sequence (O14757 whole entry): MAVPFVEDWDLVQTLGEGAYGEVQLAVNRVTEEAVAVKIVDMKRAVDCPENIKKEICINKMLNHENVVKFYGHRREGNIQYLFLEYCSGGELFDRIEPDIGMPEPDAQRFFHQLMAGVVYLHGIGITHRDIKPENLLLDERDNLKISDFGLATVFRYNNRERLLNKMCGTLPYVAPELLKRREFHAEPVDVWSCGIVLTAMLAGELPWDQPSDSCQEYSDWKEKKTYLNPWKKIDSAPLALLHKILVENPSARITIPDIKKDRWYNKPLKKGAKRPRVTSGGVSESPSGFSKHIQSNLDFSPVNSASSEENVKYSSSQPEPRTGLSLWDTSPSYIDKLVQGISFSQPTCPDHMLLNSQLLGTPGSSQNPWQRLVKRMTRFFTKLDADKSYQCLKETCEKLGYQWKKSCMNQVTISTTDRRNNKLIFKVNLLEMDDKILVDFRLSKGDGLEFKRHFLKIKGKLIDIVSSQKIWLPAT
FGFR3, sequence (P22607 450-758): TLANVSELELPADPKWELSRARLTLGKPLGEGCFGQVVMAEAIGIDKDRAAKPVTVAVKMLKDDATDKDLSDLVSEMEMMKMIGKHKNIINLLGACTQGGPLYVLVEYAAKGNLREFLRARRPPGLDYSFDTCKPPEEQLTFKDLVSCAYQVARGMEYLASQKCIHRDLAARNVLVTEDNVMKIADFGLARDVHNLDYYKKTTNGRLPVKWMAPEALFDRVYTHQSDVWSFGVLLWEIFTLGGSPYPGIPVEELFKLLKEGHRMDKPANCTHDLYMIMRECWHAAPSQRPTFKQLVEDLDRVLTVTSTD
JNK2, sequence (P45984 whole entry): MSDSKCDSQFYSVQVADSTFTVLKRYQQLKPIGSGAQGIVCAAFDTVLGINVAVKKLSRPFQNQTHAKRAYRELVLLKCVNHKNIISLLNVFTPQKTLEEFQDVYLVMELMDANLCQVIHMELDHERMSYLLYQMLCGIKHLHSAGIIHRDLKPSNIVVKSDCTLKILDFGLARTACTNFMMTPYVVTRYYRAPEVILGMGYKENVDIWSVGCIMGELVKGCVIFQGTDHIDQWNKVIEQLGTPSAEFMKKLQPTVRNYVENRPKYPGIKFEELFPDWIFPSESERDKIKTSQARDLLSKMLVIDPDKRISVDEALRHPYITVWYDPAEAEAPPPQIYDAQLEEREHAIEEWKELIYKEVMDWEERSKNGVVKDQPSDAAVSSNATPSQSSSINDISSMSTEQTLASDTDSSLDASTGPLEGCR
YES, sequence (P07947 whole entry, the tested form may be a part): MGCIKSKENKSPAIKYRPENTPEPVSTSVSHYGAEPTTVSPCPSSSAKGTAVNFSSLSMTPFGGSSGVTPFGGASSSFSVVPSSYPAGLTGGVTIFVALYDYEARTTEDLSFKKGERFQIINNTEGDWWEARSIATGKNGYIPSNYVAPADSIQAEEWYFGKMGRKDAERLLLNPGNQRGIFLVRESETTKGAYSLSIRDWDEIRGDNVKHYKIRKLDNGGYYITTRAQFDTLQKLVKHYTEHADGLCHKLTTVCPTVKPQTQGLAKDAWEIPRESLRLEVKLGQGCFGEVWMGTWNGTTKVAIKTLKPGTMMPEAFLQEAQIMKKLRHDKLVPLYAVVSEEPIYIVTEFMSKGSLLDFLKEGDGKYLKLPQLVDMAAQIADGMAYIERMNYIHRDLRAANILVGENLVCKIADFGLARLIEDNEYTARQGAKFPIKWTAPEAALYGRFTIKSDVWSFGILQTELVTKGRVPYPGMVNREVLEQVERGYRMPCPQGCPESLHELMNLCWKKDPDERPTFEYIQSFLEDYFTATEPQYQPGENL

## C=CC(=O)Nc1ccccc1Nc1ncc2c(n1)N(CCCN1CCN(C(=O)C=C)CC1)C(=O)N(c1cc(OC)cc(OC)c1)C2 [CXF-009]
[1]
  inhibition at 1 µM: 1.39%
[2]
  inhibition at 1 µM: -3.46%
[3]
  IC50: > 5000 nM
[4]
  inhibition at 1 µM: -6.19%
[5]
  inhibition at 1 µM: 3.98%
[6]
  inhibition at 1 µM: 15.4%
[7]
  inhibition at 1 µM: -4.53%
[8]
  inhibition at 1 µM: 15.4%
[9]
  inhibition at 1 µM: 2.6%
[10]
  inhibition at 1 µM: 1.43%
[11]
  inhibition at 1 µM: -5.03%
[12]
  inhibition at 1 µM: -7.86%
[13]
  inhibition at 1 µM: 0.08%
[14]
  inhibition at 1 µM: -0.52%
[15]
  inhibition at 1 µM: 0.94%
[16]
  inhibition at 1 µM: -5.04%
[17]
  inhibition at 1 µM: -3.02%
[18]
  inhibition at 1 µM: -7.61%
[19]
  IC50: 977 nM
[20]
  inhibition at 1 µM: -4.6%
[21]
  inhibition at 1 µM: 1.53%
[22]
  inhibition at 1 µM: -2.36%
[23]
  inhibition at 1 µM: 0.4%
[24]
  inhibition at 1 µM: -35%
[25]
  inhibition at 1 µM: -2.58%
[26]
  inhibition at 1 µM: 1.73%
[27]
  inhibition at 1 µM: -0.52%
[28]
  inhibition at 1 µM: 2.52%
